From PMC8145144, “Transport of Dietary Anti-Inflammatory Peptide, γ-Glutamyl Valine (γ-EV), across the Intestinal Caco-2 Monolayer” (Nutrients, 2021)
Entries after “also recorded” stand apart in the source; their conditions may differ.

Legend:
Caco-2 cells [1] = conditions: cytochalasin D 0.5 μg/mL, across Caco-2 cells; cited from earlier work
Caco-2 monolayer [2] = system: Caco-2 monolayer
Caco-2 monolayer [3] = system: Caco-2 monolayer; parameters: method as in PMID 32786865; conditions: 1 mM γ-EV across Caco-2 cells, previous study; cited from earlier work
PepT1 = assay: in vitro; format: in vitro ADME, human; conditions: human, Caco-2, Papp after Gly-Sar pretreatment
Method: (§1) The route of transport of γ-EV across Caco-2 monolayer cells was determined using 1 mM γ-EV transported for 2 h, following the same protocol as mentioned in Section 2.4. However, in this case, four transport inhibitors were used prior to γ-EV addition in the apical layer, to elucidate the mechanism of transport. Theaflavin 3′-gallate (TF3′G) (20 μM), a cell tight-junction enhancer, was added to the EMEM growth medium 24 h before the experiment. Wortmannin (a transcytosis inhibitor, 1 μM), cytochalasin D (a cell tight-junction disruptor, 0.5 μg/mL), and Gly-Sar (PepT1 transporter inhibitor, 25 mM) were added 30 min before γ-EV addition in the HBSS buffer (pH 6.5). After the treatment was over, the apical and basal layers were collected, and the concentration of γ-EV was analyzed and represented via Papp. For this study, some of the replicate inserts were used for harvesting the Caco-2 cells for analyzing the tight-junction proteins via Western immunoblotting, while some of the inserts were used for visualizing the tight-junction proteins through immunofluorescence.
(§2) LC-MS/MS was used to detect the γ-EV content after the transport study. The instrument used was the Shimadzu LC system (Nexera X2, Columbia, MD, USA), interfaced with a Sciex QTRAP 6500+ mass spectrometer (Redwood City, CA, USA), equipped with a TurboIonSpray (TIS) electrospray ion source (ESI). […] The mobile phases and gradient used were as previously described. Analyst software (version 1.6.3, Redwood City, CA, USA) was used for the sample acquisition control and data analysis. The manufacturer’s recommendations were used for tuning and calibration of the SCIEX QTRAP 6500+ mass spectrometer. The parameters for the ESI operation were as follows: 5500 V ion spray voltage; 500 °C source temperature; ion source gas 1, gas 2, and curtain gas, as 50, 50, and 25, respectively; and collision gas, high. The multiple reaction monitoring (MRM) transitions and the compound settings were previously optimized and described in [11]. An external standard curve, containing different concentrations of the peptide (γ-EV diluted in water), was prepared for the absolute quantification of the peptide. The standards were run alongside the samples (γ-EV in HBSS buffer) in triplicate. The linear range of the standard curve was from 0.016 to 10 μM, with a linear regression slope R^2 of 1 with a CV of <8% for all the dilution points.

in vitro [4] = format: in vitro ADME, human; conditions: human
Method: as §1, §2

Caco-2 monolayer cells = assay: in vitro; format: in vitro ADME, human; conditions: Caco-2
Method: as §1, §2

in vitro [5] = conditions: human, Caco-2
MTT cell viability assay = format: cell-based, human; conditions: human, Caco-2 cells (differentiated, grown for 15 days), 10 mM, 2 h, read-out: survival rate (cell viability)
Method: (§3) A clear-bottom 96-well black plate (VWR, #29444-008) was seeded with Caco-2 cells (40,000 cells/well) and grown for 15 days in EMEM media (20% FBS and 1% Pen-Strep) to achieve differentiation of the cells. The MTT assay kit (Abcam, #ab211091) was used to test the cell-viability assay following the manufacturer’s guidelines, as described in the earlier study. For the time-course study, a concentration of 1 mM γ-EV was used for determining the cell toxicity, by incubating it on the Caco-2 cells for 2, 4, and 6 h. For the dose study, the cell toxicity of γ-EV was tested for different doses, such as 2.5, 3, 4, 5, and 10 mM, after incubating the peptide on the cells for 2 h. After the treatment period, the cell media was discarded and replaced with a mixture of 50 μL of the MTT reagent and 50 μL of serum-free EMEM media. After the incubation period of 3 h at 37 °C, the MTT-supplemented media was replaced with 150 μL of MTT solvent. Following that, the plates were incubated on an orbital shaker (200 rpm, 37 °C) (MaxQ 4450, Thermo Fischer Scientific, Waltham, MA, USA) for 15 min, in dark, after which the absorbance of the plate was read at 590 nm (Synergy H1 microplate reader, BioTek, Winooski, VT, USA). The background control readings were subtracted from each of the wells and the cell-viability percentage (%) was calculated using the formula cell viability % = (sample/control) × 100, where the control was cells with no γ-EV treatment, and the sample was the γ-EV treated cells.

Caco-2 cells [6] = assay: MTT cell viability assay; format: cell-based, human
Method: as §3

HLPLP
increase of peptide transport by cytochalasin D (Caco-2 cells [1]): 65%

CC(C)[C@H](NC(=O)CC[C@H](N)C(=O)O)C(=O)O [γ-EV, γ-glutamyl valine]
Papp range (Caco-2 monolayer [2]): 1.5–2.5 × 10^−6
change in rate of transport (Papp) vs 1 mM dose (Caco-2 monolayer [2]): did not have a significant change
apparent permeability coefficient (Papp) (Caco-2 monolayer [3]): 1.56 ± 0.7 ×10⁻⁶ cm/s
Papp at 2 h, 1 mM (PepT1): 0.798 ×10⁻⁶ cm/s
Papp at 2 h, 1 mM (in vitro [4]; Caco-2, Papp after TF3′G pretreatment): 0.875 ×10⁻⁶ cm/s
Papp at 2 h, 1 mM (in vitro [4]; Caco-2, Papp after cytochalasin D pretreatment): 4.36 ×10⁻⁶ cm/s
decrease of Papp by Gly-Sar vs control (Caco-2 monolayer cells): 48%
Papp A→B at 2 h, 5 mM (in vitro [5]): 2.5 ×10⁻⁶ cm/s
Papp A→B at 4 h, 1 mM (in vitro [5]): 0.678 ×10⁻⁶ cm/s
Papp A→B at 6 h, 1 mM (in vitro [5]): 0.746 ×10⁻⁶ cm/s
Papp at 2 h, 1 mM (in vitro [5]): 1.56 ×10⁻⁶ cm/s
Papp at 2 h, 5 mM (in vitro [5]): 2.49 ×10⁻⁶ cm/s
viability at 2 h, 10 mM (MTT cell viability assay): 21%
cytotoxicity (Caco-2 cells [6]; 1 mM, exposure 4 and 6 h): not toxic; also recorded: No cytotoxicity
cytotoxicity (Caco-2 cells [6]; 10 mM, 2 h): cytotoxic
cytotoxicity (Caco-2 cells [6]; concentrations up to 5 mM, 2 h): nontoxic; also recorded: not toxic; also recorded: not cytotoxic
